Reference: patent US20100267561A1, “HERBICIDAL PYRIDAZINONE DERIVATIVES” (priority 2007, published 2010)
Read-outs that look alike come from different tables or passages of the source.

Assays:
Type in all cases: in vivo
[1] = tested on: morningglory (Ipomoea coccinea); test: Test A pre-/postemergence plant response
How it was run: (§1)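 Ratings are visual, 0–100, where 100 means complete control and 0 no effect, taken roughly 10 days after treatment by comparison with untreated controls. Formulation: non-phytotoxic solvent mixture with surfactant.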

[2] = tested on: large crabgrass (Digitaria sanguinalis); test: Test A pre-/postemergence plant response; settings: for pest or weed control at 1000 g/ha: Digitaria sanguinalis, 240 h, 1000 g ai/ha, read-out: Plant response rating, Crabgrass, Large
How it was run: as §1

[3] = tested on: pigweed (Amaranthus retroflexus); test: Test A pre-/postemergence plant response; settings: for pest or weed control at 1000 g/ha: Amaranthus retroflexus, 240 h, 1000 g ai/ha, read-out: Plant response rating, Pigweed
How it was run: as §1

[4] = tested on: barnyardgrass (Echinochloa crus-galli); test: Test A pre-/postemergence plant response; settings: for pest or weed control at 1000 g/ha: Echinochloa crus-galli, 240 h, 1000 g ai/ha, read-out: Plant response rating, Barnyardgrass
How it was run: as §1

[5] = tested on: velvetleaf (Abutilon theophrasti); test: Test A pre-/postemergence plant response
How it was run: as §1

[6] = tested on: corn (Zea mays); test: Test A pre-/postemergence plant response; settings: for Corn plant response rating (crop injury, 0 = no effect, 100 = complete kill) at 1000 g/ha: Zea mays, 240 h, 1000 g ai/ha
How it was run: as §1

[7] = tested on: giant foxtail (Setaria faberi); test: Test A pre-/postemergence plant response; settings: for pest or weed control at 1000 g/ha: Setaria faberi, 240 h, 1000 g ai/ha, read-out: Plant response rating, Foxtail, Giant
How it was run: as §1

[8] = tested on: umbrella sedge (Cyperus difformis); test: Test B flooded paddy test plant response
How it was run: (§2)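 Compounds were added directly to paddy water over 2-leaf-stage plants in pots flooded 3 cm above soil, water depth maintained. Visual injury scored against controls after 13 to 15 days in greenhouse, 0 (none) to 100 (complete control); dash indicates no result.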

[9] = tested on: barnyardgrass (Echinochloa crus-galli); test: Test B flooded paddy test plant response
How it was run: as §2

[10] = tested on: rice (Oryza sativa); test: Test B flooded paddy test plant response
How it was run: as §2

[11] = tested on: ducksalad (Heteranthera limosa); test: Test B flooded paddy test plant response
How it was run: as §2

[12] = tested on: chickweed (Stellaria media); test: Test B postemergence plant response; settings: for Plant response rating, Chickweed: Postemergence
How it was run: (§3)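 Postemergence spray on 1- to 4-leaf plants (2–18 cm); greenhouse 13–15 d; visual rating vs controls, 0 = no effect, 100 = complete control; dash = not tested.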

[13] = tested on: canarygrass (Phalaris minor); test: Test B postemergence plant response; settings: for Plant response rating, Canarygrass: Postemergence
How it was run: as §3

[14] = tested on: windgrass (Apera spica-venti); test: Test B postemergence plant response; settings: for Plant response rating, Windgrass: Postemergence
How it was run: as §3

[15] = tested on: winter barley (Hordeum vulgare); test: Test B postemergence plant response; settings: for Plant response rating, Barley: Postemergence
How it was run: as §3

[16] = Postemergence, 125 g ai/ha, 0 to 100 scale, 0 no effect, 100 complete control
[17] = Postemergence, 500 g ai/ha, 0 to 100 scale, 0 no effect, 100 complete control
[18] = Preemergence, 125 g ai/ha, 0 to 100 scale (0 no effect, 100 complete control)
[19] = Preemergence, 500 g ai/ha, 0 to 100 scale (0 no effect, 100 complete control)
[20] = Flood (flooded paddy test), 62 g ai/ha, scale 0 to 100, 0 no effect, 100 complete control
[21] = Flood (flooded paddy test), 125 g ai/ha, scale 0 to 100, 0 no effect, 100 complete control
[22] = Flood (flooded paddy test), 250 g ai/ha, scale 0 to 100, 0 no effect, 100 complete control
[23] = Flood, 31 g ai/ha, scale 0 to 100
[24] = 8 g ai/ha, postemergence, 0-100 scale
[25] = 31 g ai/ha, scale 0 to 100, 0 no effect, 100 complete control
[26] = Postemergence, 1000 g ai/ha, 0 to 100 scale, 0 no effect, 100 complete control
[27] = Preemergence, 1000 g ai/ha, 0 to 100 scale (0 no effect, 100 complete control)
[28] = post-emergence, Postemergence, 0 to 100 scale, 0 no effect, 100 complete control
[29] = pre-emergence, Preemergence, 0 to 100 scale (0 no effect, 100 complete control)

CCc1cc(-c2ccc(C(F)(F)F)cc2)nn1-c1c(OS(C)(=O)=O)cnn(C)c1=O [Compound 19]
Plant response rating, Morningglory [1, 16]: 0
Plant response rating, Morningglory [1, 17]: 0
Plant response rating, Morningglory [1, 18]: 0
Plant response rating, Morningglory [1, 19]: 0
Plant response rating, Crabgrass, Large [2, 16]: 90
Plant response rating, Crabgrass, Large [2, 17]: 100
Plant response rating, Crabgrass, Large [2, 18]: 100
Plant response rating, Crabgrass, Large [2, 19]: 100
Plant response rating, Pigweed [3, 16]: 0
Plant response rating, Pigweed [3, 17]: 0
Plant response rating, Pigweed [3, 18]: 0
Plant response rating, Pigweed [3, 19]: 0
Plant response rating, Barnyardgrass [4, 16]: 100
Plant response rating, Barnyardgrass [4, 17]: 100
Plant response rating, Barnyardgrass [4, 18]: 100
Plant response rating, Barnyardgrass [4, 19]: 100
Plant response rating, Velvetleaf [5, 16]: 0
Plant response rating, Velvetleaf [5, 17]: 0
Plant response rating, Velvetleaf [5, 18]: 0
Plant response rating, Velvetleaf [5, 19]: 0
Plant response rating, Corn [6, 16]: 90
Plant response rating, Corn [6, 17]: 90
Plant response rating, Corn [6, 18]: 80
Plant response rating, Corn [6, 19]: 90
Plant response rating, Foxtail, Giant [7, 16]: 100
Plant response rating, Foxtail, Giant [7, 17]: 100
Plant response rating, Foxtail, Giant [7, 18]: 100
Plant response rating, Foxtail, Giant [7, 19]: 100
Plant response rating, Sedge, Umbrella [8, 20]: 30
Plant response rating, Sedge, Umbrella [8, 21]: 60
Plant response rating, Sedge, Umbrella [8, 22]: 70
Plant response rating, Sedge, Umbrella [8, 23]: 0
Plant response rating, Barnyardgrass [9, 20]: 30
Plant response rating, Barnyardgrass [9, 21]: 60
Plant response rating, Barnyardgrass [9, 22]: 75
Plant response rating, Barnyardgrass [9, 23]: 0
Plant response rating, Rice [10, 20]: 20
Plant response rating, Rice [10, 21]: 60
Plant response rating, Rice [10, 22]: 70
Plant response rating, Rice [10, 23]: 0
Plant response rating, Ducksalad [11, 20]: 0
Plant response rating, Ducksalad [11, 21]: 0
Plant response rating, Ducksalad [11, 22]: 25
Plant response rating, Ducksalad [11, 23]: 0
Chickweed plant response rating [12, 24]: 0
Plant response rating, Chickweed ([12]; 16 g ai/ha, scale 0 to 100): 0
Plant response rating, Chickweed ([12]; 62 g ai/ha, scale 0 to 100): 0
Canarygrass plant response rating [13, 24]: 0
Plant response rating, Canarygrass ([13]; 16 g ai/ha, scale 0 to 100): 20
Plant response rating, Canarygrass [13, 25]: 20
Plant response rating, Canarygrass ([13]; 62 g ai/ha, scale 0 to 100): 100
Windgrass plant response rating [14, 24]: 90
Plant response rating, Windgrass ([14]; 16 g ai/ha, scale 0 to 100): 95
Plant response rating, Windgrass [14, 25]: 100
Plant response rating, Windgrass ([14]; 62 g ai/ha, scale 0 to 100): 100
Barley plant response rating [15, 24]: 0
Plant response rating, Barley ([15]; 16 g ai/ha, scale 0 to 100, 0 no effect, 100 complete control): 5
Plant response rating, Barley [15, 25]: 5
Plant response rating, Barley ([15]; 62 g ai/ha, scale 0 to 100): 90

Cc1cc(-c2ccc(C(F)(F)F)cc2)nn1-c1c(O)cnn(C)c1=O [Compound 1, 5-hydroxy-2-methyl-4-[5-methyl-3-[4-(trifluoromethyl)phenyl]-1H-pyrazol-1-yl]-3(2H)-pyridazinone]
Plant response rating, Morningglory [1, 26]: 60
Plant response rating, Morningglory [1, 27]: 0
pest or weed control at 1000 g/ha [2, 28]: 100%
pest or weed control at 1000 g/ha [2, 29]: 90%
pest or weed control at 1000 g/ha [3, 28]: 30%
pest or weed control at 1000 g/ha [3, 29]: 20%
pest or weed control at 1000 g/ha [4, 28]: 100%
pest or weed control at 1000 g/ha [4, 29]: 100%
Plant response rating, Velvetleaf [5, 26]: 60
Plant response rating, Velvetleaf [5, 27]: 0
Corn plant response rating (crop injury, 0 = no effect, 100 = complete kill) at 1000 g/ha [6, 28]: 100%
Corn plant response rating (crop injury, 0 = no effect, 100 = complete kill) at 1000 g/ha [6, 29]: 100%
pest or weed control at 1000 g/ha [7, 28]: 100%
pest or weed control at 1000 g/ha [7, 29]: 100%
pest or weed control at 62 g/ha ([8]; Cyperus difformis, Flood (flooded paddy test), 62 g ai/ha, scale 0 to 100, 0 no effect, 100 complete control, read-out: Plant response rating, Sedge, Umbrella): 40%
pest or weed control at 125 g/ha ([8]; Cyperus difformis, Flood (flooded paddy test), 125 g ai/ha, scale 0 to 100, 0 no effect, 100 complete control, read-out: Plant response rating, Sedge, Umbrella): 40%
pest or weed control at 250 g/ha ([8]; Cyperus difformis, Flood (flooded paddy test), 250 g ai/ha, scale 0 to 100, 0 no effect, 100 complete control, read-out: Plant response rating, Sedge, Umbrella): 60%
pest or weed control at 31 g/ha ([8]; Cyperus difformis, Flood, 31 g ai/ha, scale 0 to 100, read-out: Plant response rating, Sedge, Umbrella): 0%
pest or weed control at 62 g/ha ([9]; Echinochloa crus-galli, Flood (flooded paddy test), 62 g ai/ha, scale 0 to 100, 0 no effect, 100 complete control, read-out: Plant response rating, Barnyardgrass): 0%
pest or weed control at 125 g/ha ([9]; Echinochloa crus-galli, Flood (flooded paddy test), 125 g ai/ha, scale 0 to 100, 0 no effect, 100 complete control, read-out: Plant response rating, Barnyardgrass): 20%
pest or weed control at 250 g/ha ([9]; Echinochloa crus-galli, Flood (flooded paddy test), 250 g ai/ha, scale 0 to 100, 0 no effect, 100 complete control, read-out: Plant response rating, Barnyardgrass): 60%
pest or weed control at 31 g/ha ([9]; Echinochloa crus-galli, Flood, 31 g ai/ha, scale 0 to 100, read-out: Plant response rating, Barnyardgrass): 0%
plant injury at 62 g/ha ([10]; Oryza sativa, Flood (flooded paddy test), 62 g ai/ha, scale 0 to 100, 0 no effect, 100 complete control, read-out: Plant response rating, Rice): 0%
plant injury at 125 g/ha ([10]; Oryza sativa, Flood (flooded paddy test), 125 g ai/ha, scale 0 to 100, 0 no effect, 100 complete control, read-out: Plant response rating, Rice): 0%
plant injury at 250 g/ha ([10]; Oryza sativa, Flood (flooded paddy test), 250 g ai/ha, scale 0 to 100, 0 no effect, 100 complete control, read-out: Plant response rating, Rice): 50%
plant injury at 31 g/ha ([10]; Oryza sativa, Flood, 31 g ai/ha, scale 0 to 100, read-out: Plant response rating, Rice): 0%
pest or weed control at 62 g/ha ([11]; Heteranthera limosa, Flood (flooded paddy test), 62 g ai/ha, scale 0 to 100, 0 no effect, 100 complete control, read-out: Plant response rating, Ducksalad): 0%
pest or weed control at 125 g/ha ([11]; Heteranthera limosa, Flood (flooded paddy test), 125 g ai/ha, scale 0 to 100, 0 no effect, 100 complete control, read-out: Plant response rating, Ducksalad): 0%
pest or weed control at 250 g/ha ([11]; Heteranthera limosa, Flood (flooded paddy test), 250 g ai/ha, scale 0 to 100, 0 no effect, 100 complete control, read-out: Plant response rating, Ducksalad): 30%
pest or weed control at 31 g/ha ([11]; Heteranthera limosa, Flood, 31 g ai/ha, scale 0 to 100, read-out: Plant response rating, Ducksalad): 0%
Plant response rating, Chickweed [12, 25]: 0
Plant response rating, Chickweed ([12]; 62 g ai/ha, scale 0 to 100): 0
Plant response rating, Chickweed ([12]; 125 g ai/ha, scale 0 to 100): 0
Plant response rating, Chickweed ([12]; 250 g ai/ha, scale 0 to 100): 5
Plant response rating, Canarygrass [13, 25]: 0
Plant response rating, Canarygrass ([13]; 62 g ai/ha, scale 0 to 100): 0
Plant response rating, Canarygrass ([13]; 125 g ai/ha, scale 0 to 100): 0
Plant response rating, Canarygrass ([13]; 250 g ai/ha, scale 0 to 100): 40
Plant response rating, Windgrass [14, 25]: 95
Plant response rating, Windgrass ([14]; 62 g ai/ha, scale 0 to 100): 100
Plant response rating, Windgrass ([14]; 125 g ai/ha, scale 0 to 100): 100
Plant response rating, Windgrass ([14]; 250 g ai/ha, scale 0 to 100): 100
Plant response rating, Barley [15, 25]: 0
Plant response rating, Barley ([15]; 62 g ai/ha, scale 0 to 100): 0
Plant response rating, Barley ([15]; 125 g ai/ha, scale 0 to 100): 0
Plant response rating, Barley ([15]; 250 g ai/ha, scale 0 to 100): 30
